In assay [1] the target is Adenylate cyclase type 5 (Rattus norvegicus) (UniProt Q04400). Put plainly: Intrinsic activity measured as ability to stimulate dopamine sensitive Adenylate cyclase activity was measured in rat striatum. The format is functional, tissue-based.
The target of assay [2] is D(1A) dopamine receptor (Rattus norvegicus) (UniProt P18901). In words: Binding affinity for dopamine receptor D1 in rat striatal homogenate.
The target in assay [3] is D(2) dopamine receptor (Rattus norvegicus) (UniProt P61169). In words: Binding affinity for Dopamine receptor D2 of rat striatal homogenate.
Chain of D(2) dopamine receptor (Rattus norvegicus) (P61169 whole entry): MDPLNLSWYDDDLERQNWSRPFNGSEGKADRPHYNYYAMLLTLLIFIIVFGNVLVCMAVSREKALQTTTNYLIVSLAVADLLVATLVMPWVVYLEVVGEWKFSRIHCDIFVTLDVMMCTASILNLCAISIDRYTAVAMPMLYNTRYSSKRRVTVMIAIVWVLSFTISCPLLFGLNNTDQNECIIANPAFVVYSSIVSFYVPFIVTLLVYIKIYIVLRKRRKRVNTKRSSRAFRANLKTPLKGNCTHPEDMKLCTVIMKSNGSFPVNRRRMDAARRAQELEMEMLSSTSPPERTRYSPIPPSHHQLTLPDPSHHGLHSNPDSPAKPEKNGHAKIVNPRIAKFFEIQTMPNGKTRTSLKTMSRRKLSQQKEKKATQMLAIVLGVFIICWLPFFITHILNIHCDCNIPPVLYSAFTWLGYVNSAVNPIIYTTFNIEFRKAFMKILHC
Assay [4] deals with Dopamine receptors; D1 & D2 (Rattus norvegicus) (UniProt P18901+P61169). In words: Relative binding affinity for dopamine receptors D1 and D2 in rat striatal homogenates.

Bounds are passed on as bounds.

Chain of Adenylate cyclase type 5 (Rattus norvegicus) (Q04400 whole entry): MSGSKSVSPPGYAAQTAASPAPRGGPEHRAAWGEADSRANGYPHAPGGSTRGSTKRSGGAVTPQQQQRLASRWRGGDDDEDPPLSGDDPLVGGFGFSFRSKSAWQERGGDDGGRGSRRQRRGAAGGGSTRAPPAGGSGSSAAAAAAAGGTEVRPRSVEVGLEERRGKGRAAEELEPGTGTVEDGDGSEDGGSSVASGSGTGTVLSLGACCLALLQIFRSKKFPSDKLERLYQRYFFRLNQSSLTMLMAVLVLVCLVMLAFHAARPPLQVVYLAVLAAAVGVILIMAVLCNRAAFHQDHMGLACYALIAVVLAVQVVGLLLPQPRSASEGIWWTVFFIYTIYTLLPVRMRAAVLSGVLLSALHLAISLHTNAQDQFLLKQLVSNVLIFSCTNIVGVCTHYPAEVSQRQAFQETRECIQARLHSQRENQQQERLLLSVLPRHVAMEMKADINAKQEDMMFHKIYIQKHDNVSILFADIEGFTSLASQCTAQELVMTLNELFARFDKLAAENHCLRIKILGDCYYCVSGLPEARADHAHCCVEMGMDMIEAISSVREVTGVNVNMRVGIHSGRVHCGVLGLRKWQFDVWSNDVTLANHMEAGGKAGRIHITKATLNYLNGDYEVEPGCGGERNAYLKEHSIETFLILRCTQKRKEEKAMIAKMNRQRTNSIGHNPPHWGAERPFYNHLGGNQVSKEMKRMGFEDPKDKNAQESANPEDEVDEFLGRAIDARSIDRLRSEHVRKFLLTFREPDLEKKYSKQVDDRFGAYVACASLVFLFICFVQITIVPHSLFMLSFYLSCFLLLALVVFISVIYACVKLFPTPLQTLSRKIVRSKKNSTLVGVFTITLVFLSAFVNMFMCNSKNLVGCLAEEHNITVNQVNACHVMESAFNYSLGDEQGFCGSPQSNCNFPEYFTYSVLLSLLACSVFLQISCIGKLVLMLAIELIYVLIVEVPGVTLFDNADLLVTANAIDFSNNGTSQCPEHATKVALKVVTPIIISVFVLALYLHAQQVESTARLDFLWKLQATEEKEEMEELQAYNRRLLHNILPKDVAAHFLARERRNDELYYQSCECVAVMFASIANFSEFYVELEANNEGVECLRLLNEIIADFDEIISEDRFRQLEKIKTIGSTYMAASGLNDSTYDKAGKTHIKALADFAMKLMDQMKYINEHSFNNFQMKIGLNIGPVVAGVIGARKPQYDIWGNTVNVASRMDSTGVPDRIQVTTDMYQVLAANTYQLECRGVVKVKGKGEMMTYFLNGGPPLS
Chain of D(1A) dopamine receptor (Rattus norvegicus) (P18901 whole entry): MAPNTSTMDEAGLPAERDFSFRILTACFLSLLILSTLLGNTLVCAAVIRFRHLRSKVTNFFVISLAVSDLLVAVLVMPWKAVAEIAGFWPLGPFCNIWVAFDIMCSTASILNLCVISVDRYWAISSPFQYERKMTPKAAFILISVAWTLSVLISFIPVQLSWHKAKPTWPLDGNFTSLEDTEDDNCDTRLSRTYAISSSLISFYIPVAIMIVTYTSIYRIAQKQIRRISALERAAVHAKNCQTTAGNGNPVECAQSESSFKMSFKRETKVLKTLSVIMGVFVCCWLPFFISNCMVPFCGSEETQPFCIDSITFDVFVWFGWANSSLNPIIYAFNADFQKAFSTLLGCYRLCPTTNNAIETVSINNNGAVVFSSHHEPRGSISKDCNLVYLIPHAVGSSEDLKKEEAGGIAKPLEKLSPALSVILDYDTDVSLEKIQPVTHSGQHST

For `Oc1cc2c(cc1O)[C@H]1c3ccccc3CN[C@@H]1CC2`, in assay [1], the Intrinsic activity amounted to 95%.
For `Oc1ccc2c(c1)CN[C@@H]1CCc3cc(O)c(O)cc3[C@@H]21`, the Intrinsic activity in assay [1] is 104%. Also, the K0.5 in assay [2] was 12.2 nM; in assay [3] it was 53.6 nM. Also, in assay [4], the Selectivity turned out to be 4.4.
For the compound `CCc1ccc2c(c1)[C@@H]1c3cc(O)c(O)cc3CC[C@H]1NC2`, in assay [1], the Intrinsic activity turned out to be 103%. Also, the K0.5 stood at 29.2 nM in assay [2] and 423 nM in assay [3]. For the same compound, in assay [4], the Selectivity came to 14.5.
With `CCCN1Cc2c(C)cccc2[C@@H]2c3cc(O)c(O)cc3CC[C@H]21`, the Intrinsic activity in assay [1] amounted to 89%. Further, the K0.5 was 23.4 nM in assay [2] and 9.01 nM in assay [3].
As to `Cc1ccc2c(c1)CN[C@@H]1CCc3cc(O)c(O)cc3[C@@H]21`, the Intrinsic activity in assay [1] was determined as 105%. Also, the K0.5 stood at 5.06 nM in assay [2] and 18 nM in assay [3]. The Selectivity in assay [4] was determined as 3.6.
Turning to `Cc1ccc2c(c1)[C@@H]1c3cc(O)c(O)cc3CC[C@H]1NC2`, in assay [1], the Intrinsic activity was determined as 91%. The compound also showed a K0.5 in assay [2] of 8.66 nM.
As to `Oc1cc2c(cc1O)[C@H]1c3cc(-c4ccccc4)ccc3CN[C@@H]1CC2`, in assay [1], the Intrinsic activity was determined as 60%. Also, the K0.5 was determined as 187 nM in assay [2] and 90.2 nM in assay [3]. The compound further had a Selectivity in assay [4] of 0.5.
In the case of `CN1CCc2cc(Cl)c(O)cc2[C@@H](c2ccccc2)C1`, the K0.5 in assay [3] is greater than 500 nM.
In the case of `CCCN1Cc2cc(C)ccc2[C@@H]2c3cc(O)c(O)cc3CC[C@H]21`, the Intrinsic activity in assay [1] was determined as 20%. The K0.5 in assay [2] worked out at 181 nM; in assay [3], 29.4 nM. For the same compound, in assay [4], the Selectivity was found to be 0.16.
On to `O=c1[nH]c2ccccc2n1CCCN1CCC(n2c(=O)[nH]c3cc(Cl)ccc32)CC1`, for which the K0.5 is greater than 1000 nM in assay [2] and 1 nM in assay [3]. The same compound came in with a Selectivity in assay [4] of less than 1000.
As to `Oc1ccc2c(c1)[C@@H]1c3cc(O)c(O)cc3CC[C@H]1NC2`, in assay [1], the Intrinsic activity is 95%. Besides, the K0.5 in assay [2] is 18.8 nM; in assay [3], 194 nM. In addition, the Selectivity in assay [4] came out at 10.3.
As to `CCCN1Cc2ccccc2[C@@H]2c3cc(O)c(O)cc3CC[C@H]21`, the Intrinsic activity in assay [1] was found to be 40%. Besides, the K0.5 in assay [2] worked out at 180 nM; in assay [3] it was 25.7 nM.
On to `Cc1cccc2c1CN[C@@H]1CCc3cc(O)c(O)cc3[C@@H]21`, for which, in assay [1], the Intrinsic activity stood at 80%. The K0.5 in assay [2] was 6.58 nM; in assay [3] it was 18 nM. This compound also registered a Selectivity in assay [4] of 2.7.

Source of the values: ChEMBL document CHEMBL1128688, “Synthesis and biological evaluation of a series of substituted benzo[a]phenanthridines as agonists at D1 and D2 dopamine receptors” (J Med Chem, 1995).
